Measurements published in PMC4666608, “Metabolic Profiling of Chicken Embryos Exposed to Perfluorooctanoic Acid (PFOA) and Agonists to Peroxisome Proliferator-Activated Receptors” (PLoS ONE, 2015).
Marks after values point to notes of the source that are not given here.

Tested on: chicken embryos
Test: Metabolic profiling of allantoic fluid (GC-MS, LC-MS, OPLS-DA)
Type: in vivo, Gallus gallus domesticus
Conditions: 150 μg/egg
Procedure: Controls were injected with 20 μL vehicle only (DMSO).
Plasma was collected and stored at -70°C.
Metabolites in allantoic fluid and blood plasma were analyzed using gas chromatography-mass spectrometry (GC-MS) and liquid chromatography-mass spectrometry (LC-MS) as described in S1 Methods. Prior to GC-MS and LC-MS analysis, allantoic fluid (100 μL) and blood plasma (50 μL) were extracted. To each sample, 900 μL (allantoic fluid) or 450 μL (blood plasma) of extraction buffer (90/10 v/v methanol:water) including all internal standards were added. Standards for GC-MS were proline, succinic acid, glutamic acid, salicylic acid, alpha-ketoglutarate, putrescine, myristic acid, hexadecanoic acid, cholesterol, and sucrose. Standards for LC-MS were Val-Tyr-Val, Leu-enkephalin, sulfadimethoxine and reserpine. Samples were homogenized by shaking in a bead mill at a frequency of 30 Hz for 3 minutes and proteins were precipitated at +4°C on ice. The samples were centrifuged at +4°C, 14000 rpm, for 10 min. Then, 200 μL supernatant was transferred to a GC microvial and 200 μL was transferred to an LC microvial, and solvents were evaporated. Samples from the four replicate experiments were analyzed using in chronological order and within each replicate experiment the run order of the individual samples was randomized.
Multivariate statistical analyses of metabolite profiles were performed using the software package SIMCA-P version 13.0 (Umetrics, Umeå, Sweden). Data was centered and scaled to variance 1 (UV scaling) prior to modelling. To reduce unintended systematic variation caused by sample processing and instrument drift, GC-MS and LC-MS metabolite amounts (expressed as the area under the chromatographic peak) were normalized by Orthogonal Partial Least Squares analysis (O2PLS) prior to multivariate data analysis. O2PLS finds common (predictive) and unique (orthogonal) variation in two data matrices. If applied to find the common variation between the data matrix containing the measured metabolite concentrations and a matrix containing only the internal standards, the only common (predictive) variation expected is due to the unintended systematic variation. By deleting the contribution of the predictive latent variables, that variation can be removed from the data. Models obtained after this normalization contain in general less latent variables, and this simplification helps when deciding on the number of latent variables to be used. Following normalization, GC-MS and LC-MS data were analyzed together. Initially, a global Principal Component Analysis (PCA) was performed to get an overview of groups and trends and to identify outliers. Projections to latent structures by means of Orthogonal Partial Least Squares Discriminant Analysis (OPLS-DA) was used to model the relationship between the X-matrix (metabolite concentrations) and the Y matrix (class, i.e. exposure group or sex), and to find x-variables that were related to class belonging. OPLS-DA is a supervised prediction and regression method that rotates the projection plane to find the maximum covariance between the data and the class assignment. All groups were first analyzed together in a 5-class OPLS-DA and then each exposure group was analyzed against the control group in a 2-class OPLS-DA. Sex differences were analyzed both using the whole data set and in each group separately using 2-class OPLS-DA, with females and males as the two classes. Only variables with 80% or more nonzero values were included in the statistical models. […] The validity of each model was also checked using CV-ANOVA (ANOVA of the cross-validated residuals). A significance level of p < 0.05 was used. For each model, R ^2 X, R ^2 Y and Q ^2 values were calculated, where R ^2 X is a measure of the fraction of x variation modeled in the extracted latent variables, R ^2 Y is a measure of the fraction of y variation modeled and Q ^2 is an estimate of the predictive ability of the model and is calculated by cross-validation. […]

[1] = GC, tentative 2-Oxovaleric acid

CN(CCOc1ccc(CC2SC(=O)NC2=O)cc1)c1ccccn1 (centres unmarked) [Rosiglitazone, rosiglitazone, reference compound]
Mean concentration relative to control, feature Win004_C08 (GC): 1.2**
Mean concentration relative to control, feature Win005_C07 (GC): 1.2*
Mean concentration relative to control, feature Win008_C06 (GC): 1.7***
Mean concentration relative to control, feature Win022_C01 (GC): 2.2***
Mean concentration relative to control, feature Win023_C06 (GC): 1.8*
Mean concentration relative to control, feature win006_C01 (GC): 2.3***
Mean concentration relative to control, feature Win008_C07 (GC, tentative 1-Aminocyclopropanecarboxylic acid): 1.1
Mean concentration relative to control, feature Win023_C03 (GC, tentative 2-Oxoglutaric acid): 2.5***
Mean concentration relative to control, feature Win007_C09 [1]: 1.3***
Mean concentration relative to control, feature Win008_C05 [1]: 1.4***
Mean concentration relative to control, feature Win018_C04 (GC, tentative 3-Amino-2-piperidone): 1
Mean concentration relative to control, feature Win007_C03 (GC, tentative 3-Hydroxybutanoic acid): 1.0
Mean concentration relative to control, feature Win042_C02 (GC, tentative Cystathionine): 1.1
Mean concentration relative to control, feature Win009_C03 (GC, tentative Ketoleucine): 1.3**
Mean concentration relative to control, feature Win008_C04 (GC, tentative Malonic acid): 1.0
Mean concentration relative to control, feature Win005_C03 (GC, tentative Oxalic acid): 0.7**
Mean concentration relative to control, feature Win013_C05 (GC, tentative Succinic acid): 1.1*
Mean concentration relative to control, feature 134.0239@1.1350567 (LC): 1.4*
Mean concentration relative to control, feature 145.0538@3.072527 (LC): 1.2
Mean concentration relative to control, feature 147.0328@3.0722888 (LC): 1.2
Mean concentration relative to control, feature 160.0323@1.1950632 (LC): 1.2***
Mean concentration relative to control, feature 173.0488@3.0734746 (LC): 1.2
Mean concentration relative to control, feature 176.0952@1.3890611 (LC): 0.4*
Mean concentration relative to control, feature 178.0428@1.7582192 (LC): 1.3**
Mean concentration relative to control, feature 180.0048@4.421465 (LC): 0.9***
Mean concentration relative to control, feature 189.1159@1.9209185 (LC): 0.7**
Mean concentration relative to control, feature 197.0639@2.1181405 (LC): 1.2***
Mean concentration relative to control, feature 201.012@3.046474 (LC): 1.1
Mean concentration relative to control, feature 202.0429@2.9548414 (LC): 1.3***
Mean concentration relative to control, feature 205.0533@4.421879 (LC): 0.9***
Mean concentration relative to control, feature 214.016@2.1190732 (LC): 1.2**
Mean concentration relative to control, feature 226.0107@4.421457 (LC): 0.9***
Mean concentration relative to control, feature 236.0816@3.0720985 (LC): 1.2
Mean concentration relative to control, feature 241.0551@2.3510706 (LC): 1.3***
Mean concentration relative to control, feature 243.1118@2.1537287 (LC): 0.7***
Mean concentration relative to control, feature 244.9972@4.421603 (LC): 0.96*
Mean concentration relative to control, feature 245.1563@2.2907295 (LC): 0.7*
Mean concentration relative to control, feature 250.0981@3.072492 (LC): 1.2
Mean concentration relative to control, feature 262.0978@2.7961144 (LC): 1.3*
Mean concentration relative to control, feature 263.0855@2.2847009 (LC): 1.4**
Mean concentration relative to control, feature 270.0441@1.1407775 (LC): 0.7*
Mean concentration relative to control, feature 278.0928@3.0723689 (LC): 1.2
Mean concentration relative to control, feature 279.1248@2.796395 (LC): 1.4*
Mean concentration relative to control, feature 280.1425@2.730277 (LC): 1.1**
Mean concentration relative to control, feature 288.1166@2.9551322 (LC): 1.7**
Mean concentration relative to control, feature 289.1012@3.249983 (LC): 1.2
Mean concentration relative to control, feature 289.173@7.5030584 (LC): 0.7***
Mean concentration relative to control, feature 294.1242@2.3692534 (LC): 0.7***
Mean concentration relative to control, feature 302.0508@3.0722616 (LC): 1.1
Mean concentration relative to control, feature 305.1682@5.353517 (LC): 1.2
Mean concentration relative to control, feature 305.1684@5.2955093 (LC): 1.2
Mean concentration relative to control, feature 308.073@4.4211636 (LC): 0.9***
Mean concentration relative to control, feature 310.1181@1.5090439 (LC): 0.7***
Mean concentration relative to control, feature 316.0389@3.0725708 (LC): 1.2
Mean concentration relative to control, feature 320.0626@3.0729218 (LC): 1.1
Mean concentration relative to control, feature 325.1114@2.1190624 (LC): 1.6***
Mean concentration relative to control, feature 325.1115@2.3554378 (LC): 1.5**
Mean concentration relative to control, feature 333.1335@2.8639288 (LC): 0.7***
Mean concentration relative to control, feature 333.2005@6.5291867 (LC): 1.1
Mean concentration relative to control, feature 335.1866@4.508565 (LC): 0.7***
Mean concentration relative to control, feature 337.1651@1.8737898 (LC): 1.6***
Mean concentration relative to control, feature 344.1424@2.348947 (LC): 1.5**
Mean concentration relative to control, feature 348.0553@3.0730357 (LC): 1.1
Mean concentration relative to control, feature 349.1651@2.4087605 (LC): 1
Mean concentration relative to control, feature 357.1997@6.9691257 (LC): 0.8*
Mean concentration relative to control, feature 371.1513@3.0009465 (LC): 1.4**
Mean concentration relative to control, feature 375.1819@3.672254 (LC): 0.9
Mean concentration relative to control, feature 394.167@3.9552917 (LC): 0.7*
Mean concentration relative to control, feature 414.1482@2.118972 (LC): 1.5***
Mean concentration relative to control, feature 466.0837@2.1187525 (LC): 1.5***
Mean concentration relative to control, feature 488.0753@4.419585 (LC): 0.8***
Mean concentration relative to control, feature 498.1003@2.1184251 (LC): 1.4***
Mean concentration relative to control, feature 507.1682@2.1238236 (LC): 1.3*
Mean concentration relative to control, feature 580.1426@3.0726147 (LC): 1.3
Mean concentration relative to control, feature 582.1578@2.1747615 (LC): 1.8***
Mean concentration relative to control, feature 588.1751@2.1182237 (LC): 1.5***
Mean concentration relative to control, feature 594.1337@3.0724604 (LC): 1.3
Mean concentration relative to control, feature 604.1486@2.1174603 (LC): 1.5***
Mean concentration relative to control, feature 623.183@2.1249466 (LC): 1.8***
Mean concentration relative to control, feature 668.2625@6.4379454 (LC): 1.04**
Mean concentration relative to control, feature 155.0353@0.6447272 (LC, suggested C3H10NO4P): 0.4*
Mean concentration relative to control, feature 345.0497@1.1234403 (LC, suggested C10H12N5O7P): 1.6***
Mean concentration relative to control, feature 337.0259@4.4213357 (LC, suggested C13H11N3O4S2): 0.9***
Mean concentration relative to control, feature 344.1427@2.1164653 (LC, suggested C13H20N4O7): 1.6***
Mean concentration relative to control, feature 331.184@6.373359 (LC, suggested C13H25N5O5): 1
Mean concentration relative to control, feature 361.2026@5.6644735 (LC, suggested C16H31N3O4S): 0.7**
